# Test results reported in ChEMBL document CHEMBL3286107, “Synthesis of C,N'-linked bis-heterocycles using a deprotometalation-iodination-N-arylation sequence and evaluation of their antiproliferative activity in melanoma cells” (Bioorg Med Chem, 2014).
# Activity calls are given as the source filed them. No cut-off for these calls is given here.
# Assays:
# [1] = tested on: A2058; assay: Growth inhibition of human A2058 cells at 10 uM after 72 hrs by MTT assay; type: functional
# [2] = tested on: A2058; assay: Antiproliferative activity against human A2058 cells assessed as inhibition of cell growth after 72 hrs by MTT assay; type: functional, cell-based; conditions: A2058, 72 h
SMILES,growth inhibition (GI) [1],"inhibition of growth at 10 µM ([1]; A2058, 72 h, read-out: GI) [%]",IC50 [2] [µM]
c1ccc2sc(-n3cnc4ccccc43)cc2c1,Active,–,–
c1ccc2sc(-n3cnc4ccccc43)nc2c1,Active,–,–
c1ccc2oc(-n3cnc4ccccc43)cc2c1,Active,–,–
c1ccc2oc(-n3cnc4ccccc43)nc2c1,Active,–,–
c1ccc2oc(-n3ccnc3)nc2c1,–,84.3,7.1
